According to patent US20250059220A1, “SUBSTITUTED BENZOTHIOPHENE DERIVATIVES AND METHODS OF USE THEREOF” (Merck Sharp & Dohme LLC, priority 2021, published 2025):

What was measured:
human PTPN2 (1-387) = human PTPN2 (1-387) (Homo sapiens (Human), UniProt P17706); assay: Human PTPN2 Biochemical Assay; details: DiFMUP substrate
Experimental: Human PTPN2 Biochemical Assay
Test compounds were dissolved in DMSO, and 10-point serial 3-fold dilution series in DMSO were prepared in Echo Qualified 384-well Polypropylene Microplates (Labcyte, San Jose, CA) (top concentration 50 µM). Assay plates (384-well low volume black plates; Corning #3820, Corning, NY) were prepared by dispensing 50 nL of test compound, and DMSO (for high and low controls) by ECHO acoustic dispenser (Labcyte, San Jose CA). This was followed by addition of 5 μL of 0.2 nM human PTPN2 (1-387) solution (prepared in the assay buffer, 50 mM Tris pH 7.4, 150 mM NaCl, 0.01% Tween20, 0.5 mM dithiothreitol) to all wells except the low control. 5 μl of assay buffer was added into the low control, then the plate was incubated for 30 minutes at room temperature. Subsequently, 5 μl of 100 µM DiFMUP (6,8-difluoro-4-methylumbelliferyl phosphate) solution (prepared in assay buffer from 10 mM stock in DMSO) was added to the assay plate and incubated for 1 hour at room temperature. For detection, assay plates were read on SpectraMax Microplate Reader (Molecular Devices), with Excitation wavelength=360 nm and Emission wavelength=460 nm. Test compound effects were normalized to the window defined by the controls, DMSO/buffer, and DMSO/50 pM human PTPN2. Calculated % effects were fit using a 4-parameter algorithm, and EC50 was reported.

human PTPN1 (1-435) = human PTPN1 (1-435) (Homo sapiens (Human), UniProt P18031); assay: Human PTPN1 Biochemical Assay; details: DiFMUP substrate, read-out: PTP1B IC50
human PTPN1 (1-435), sequence (P18031 whole entry): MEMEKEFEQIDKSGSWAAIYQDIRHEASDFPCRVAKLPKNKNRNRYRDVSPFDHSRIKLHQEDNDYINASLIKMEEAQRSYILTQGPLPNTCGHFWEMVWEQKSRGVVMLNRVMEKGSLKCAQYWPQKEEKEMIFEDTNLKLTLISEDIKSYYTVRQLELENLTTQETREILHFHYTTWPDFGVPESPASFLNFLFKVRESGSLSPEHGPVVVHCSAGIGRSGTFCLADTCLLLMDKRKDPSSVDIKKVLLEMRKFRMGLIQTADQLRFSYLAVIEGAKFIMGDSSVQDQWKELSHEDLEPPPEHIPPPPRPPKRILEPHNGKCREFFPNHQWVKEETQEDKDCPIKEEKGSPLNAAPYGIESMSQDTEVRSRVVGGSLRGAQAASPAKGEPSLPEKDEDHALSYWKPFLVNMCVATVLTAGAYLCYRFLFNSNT
Experimental: Human PTPN1 Biochemical Assay
Test compounds were dissolved in DMSO, and 10-point serial 3-fold dilution series in DMSO were prepared in Echo Qualified 384-well Polypropylene Microplates (Labcyte, San Jose, CA) (top concentration 50 µM). […] 5 μl of assay buffer was added into the low control. The plate was incubated for 30 minutes at room temperature. Subsequently, 5 μl of 100 µM DiFMUP (6,8-difluoro-4-methylumbelliferyl phosphate) solution (prepared in assay buffer from 10 mM stock in DMSO) was added to the assay plate and incubated for 1 hour at room temperature. For detection, assay plates were read on SpectraMax Microplate Reader (Molecular Devices), with Excitation wavelength=360 nm and Emission wavelength=460 nm. […] Calculated % effects were fit using a 4-parameter algorithm, and EC50 was reported.

human PTPN2 (1-387), sequence (P17706 other isoform, or with tags, fused parts or gaps): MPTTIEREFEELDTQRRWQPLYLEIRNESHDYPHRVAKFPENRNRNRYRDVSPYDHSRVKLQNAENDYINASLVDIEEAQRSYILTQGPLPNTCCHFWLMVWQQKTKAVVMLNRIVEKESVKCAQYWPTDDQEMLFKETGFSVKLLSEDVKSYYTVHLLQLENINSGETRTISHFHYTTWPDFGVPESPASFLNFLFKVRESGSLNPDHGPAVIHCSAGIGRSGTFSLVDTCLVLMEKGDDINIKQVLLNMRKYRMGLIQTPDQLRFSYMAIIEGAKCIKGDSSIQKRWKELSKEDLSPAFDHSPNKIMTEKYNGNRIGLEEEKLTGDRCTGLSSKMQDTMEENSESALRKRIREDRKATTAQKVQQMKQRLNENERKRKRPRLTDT

Structure (SMILES)	IC50 (human PTPN2 (1-387)) [µM]	IC50 (human PTPN1 (1-435)) [µM]
O=C(NCc1cccnn1)c1cc(F)c2sc(C(F)(F)P(=O)(O)O)c(Br)c2c1 [Compound 164]	0.435	0.361
Cc1c(C(F)(F)P(=O)(O)O)sc2c(OCCCC(F)(F)F)cc(C(N)=O)cc12 [Compound 431]	0.119	0.0993
CC(=O)N1CCC(CNC(=O)c2ccc3sc(C(F)(F)P(=O)(O)O)c(Br)c3c2)(C(F)(F)F)C1 (stereo not drawn) [Compound 74]	7.44	5.76
CC(C)C1CC(CNC(=O)c2ccc3sc(C(F)(F)P(=O)(O)O)c(Br)c3c2)C1 (stereo not drawn) [Compound 93]	4.33	4.13
CN1C[C@H]2[C@H](CNC(=O)c3ccc4sc(C(F)(F)P(=O)(O)O)c(Br)c4c3)[C@H]2c2ccccc21 [Compound 78]	1.03	1.09
CC(C)=CCCOc1cc(C(N)=O)cc2c(Br)c(C(F)(F)P(=O)(O)O)sc12 [Compound 307]	0.065	0.0575
CS(=O)(=O)c1ccc(COc2cc(C(N)=O)cc3c(Br)c(C(F)(F)P(=O)(O)O)sc23)cc1Cl [Compound 390]	0.004	0.0087
CNC(=O)c1cc(OCCCS(N)(=O)=O)c2sc(C(F)(F)P(=O)(O)O)c(C)c2c1 [Compound 433]	0.033	0.0293
O=C(Nc1cccc(C(=O)N2CCCC2)c1)c1ccc2sc(C(F)(F)P(=O)(O)O)c(Br)c2c1 [Compound 101]	2.36	1.78
O=C(NCc1cc(C2CC2)on1)c1ccc2sc(C(F)(F)P(=O)(O)O)c(Br)c2c1 [Compound 189]	1.32	0.99
COc1ccc(COc2cc(C(N)=O)cc3c(Br)c(C(F)(F)P(=O)(O)O)sc23)cc1C(F)(F)F [Compound 361]	0.0546	0.133
CS(=O)(=O)c1ccc(COc2cc(C(N)=O)cc3c(Br)c(C(F)(F)P(=O)(O)O)sc23)c(F)c1 [Compound 389]	0.0078	0.0141
NC(=O)c1cc(OCC2CC2(F)F)c2sc(C(F)(F)P(=O)(O)O)c(Br)c2c1 (stereo not drawn) [Compound 315]	0.0218	0.0234
NC(=O)c1cc(OC[C@@H]2C[C@@H]2F)c2sc(C(F)(F)P(=O)(O)O)c(Br)c2c1 [Compound 378]	0.0919	0.0744
NC(=O)c1cc(OCc2ccc(-c3ccccc3)cc2)c2sc(C(F)(F)P(=O)(O)O)c(Br)c2c1 [Compound 346]	0.0025	0.0164
Cc1c(C(F)(F)P(=O)(O)O)sc2c(OCC3CC3(F)F)cc(C(N)=O)cc12 (stereo not drawn) [Compound 435]	0.13	0.207
CC1CCCC(NC(=O)c2ccc3sc(C(F)(F)P(=O)(O)O)c(Br)c3c2)C1 (stereo not drawn) [Compound 98]	4.73	4.57
CNC(=O)c1cc(OCCCS(C)(=O)=O)c2sc(C(F)(F)P(=O)(O)O)c(C)c2c1 [Compound 430]	0.109	0.0617
O=C(NCc1cccnn1)c1cc(OCCCc2cncs2)c2sc(C(F)(F)P(=O)(O)O)c(Br)c2c1 [Compound 268]	0.02	0.0157
CNC(=O)c1cc(OCCC2CC2(F)F)c2sc(C(F)(F)P(=O)(O)O)c(Br)c2c1 (stereo not drawn) [Compound 322]	0.0293	0.0209
O=C(NCCn1cnnc1)c1ccc2sc(C(F)(F)P(=O)(O)O)c(Br)c2c1 [Compound 143]	6.14	4.34

Structure (SMILES)	IC50 (human PTPN2 (1-387)) [µM]	IC50 (human PTPN1 (1-435)) [µM]
NC(=O)c1cc(OCC2CC2(F)F)c2sc(C(F)(F)P(=O)(O)O)c(Br)c2c1 (stereo not drawn) [Compound 316]	0.0504	0.0681
NC(=O)c1cc(OC[C@@H]2CC[C@H]2C(F)(F)F)c2sc(C(F)(F)P(=O)(O)O)c(Br)c2c1 [Compound 279]	0.231	0.097
Cc1c(C(F)(F)P(=O)(O)O)sc2c(OCc3ccc(S(C)(=O)=O)cc3)cc(C(N)=O)cc12 [Compound 438]	0.0215	0.0274
N#CCCNC(=O)c1cc(OCCCC(F)(F)F)c2sc(C(F)(F)P(=O)(O)O)c(Br)c2c1 [Compound 329]	0.0141	0.0181
CS(=N)(=O)Cc1cc(OCCCC(F)(F)F)c2sc(C(F)(F)P(=O)(O)O)c(Br)c2c1 (single isomer, unassigned) [Compound 411, ((3-bromo-5-(((R or S)-methylsulfonimidoyl)methyl)-7-(4,4,4-trifluorobutoxy)benzo[b]thiophen-2-yl)difluoromethyl)phosphonic acid]	0.251	0.299
CCCCOc1cc(C(N)=O)cc2c(Br)c(C(F)(F)P(=O)(O)O)sc12 [Compound 240]	0.0987	0.113
NC(=O)CCCCOc1cc(C(N)=O)cc2c(Br)c(C(F)(F)P(=O)(O)O)sc12 [Compound 375]	0.0779	0.0674
O=P(O)(O)C(F)(F)c1sc2c(OCCCC(F)(F)F)cc(-c3nnc(C4CC4)[nH]3)cc2c1Br [Compound 418]	0.0027	0.0025
CC(NC(=O)c1ccc2sc(C(F)(F)P(=O)(O)O)c(Br)c2c1)c1cccnc1 (stereo not drawn) [Compound 35]	7.16	6.44
O=C(NC[C@]12C[C@@H]1CCN2Cc1ccccc1)c1ccc2sc(C(F)(F)P(=O)(O)O)c(Br)c2c1 [Compound 88]	1.51	1.09
O=C(NCC1CNC1)c1ccc2sc(C(F)(F)P(=O)(O)O)c(Br)c2c1 [Compound 126]	6.11	5.23
N#CC1CCC(NC(=O)c2ccc3sc(C(F)(F)P(=O)(O)O)c(Br)c3c2)C1 (stereo not drawn) [Compound 37]	3.49	2.65
O=P(O)(O)C(F)(F)c1sc2c(OCCCC(F)(F)F)cccc2c1Br [Compound 410, ((3-bromo-7-(4,4,4-trifluorobutoxy)benzo[b]thiophen-2-yl)difluoromethyl)phosphonic acid]	0.225	0.281
CS(=O)(=O)CCCOc1cc(C(N)=O)cc2c(C#N)c(C(F)(F)P(=O)(O)O)sc12 [Compound 421, ((5-carbamoyl-3-cyano-7-(3-(methylsulfonyl)propoxy)benzo[b]thiophen-2-yl)difluoromethyl)phosphonic acid]	0.00487	0.0119
N#Cc1cc(Cl)ccc1COc1cc(C(N)=O)cc2c(Br)c(C(F)(F)P(=O)(O)O)sc12 [Compound 341]	0.0467	0.0943
O=C(NC1CC(F)(F)C1)c1cc(OCCCC(F)(F)F)c2sc(C(F)(F)P(=O)(O)O)c(Br)c2c1 [Compound 206]	0.00804	0.009
O=C(NC1(c2cncc(C(F)(F)F)c2)CC1)c1ccc2sc(C(F)(F)P(=O)(O)O)c(Br)c2c1 [Compound 111]	4.26	3.98
COCC(NC(=O)c1ccc2sc(C(F)(F)P(=O)(O)O)c(Br)c2c1)c1ccc(F)cc1 (stereo not drawn) [Compound 112]	2.91	3.68
O=C(N[C@H]1CC[C@H](C(F)(F)F)CC1)c1ccc2sc(C(F)(F)P(=O)(O)O)c(Br)c2c1 [Compound 52]	6.82	5.68
N#Cc1c(C(F)(F)P(=O)(O)O)sc2ccc(C(=O)NCc3cccnn3)cc12 [Compound 172]	0.581	0.663
C[C@@H](NC(=O)c1cc(OCCCC(F)(F)F)c2sc(C(F)(F)P(=O)(O)O)c(Br)c2c1)c1cccnn1 [Compound 208]	0.00696	0.0075
